Where two headings read alike, the source gives them in different places.
Experiments:
TbrCatL = biological target: T1, TbrCatL (Trypanosoma brucei rhodesiense, UniProt Q95PM0); experiment: TbrCatL enzymatic inhibition assay (cleavage of fluorogenic substrate Z-FR-AMC); assay type: biochemical; details: for TbrCatL 0’ Inhibition / TbrCatL 10’ Inhibition: sheet "Screening results";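 for TbrCatL 0’ Inhibition: at 5 µM compound concentration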;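 for TbrCatL 10’ Inhibition: at 5 µM compound concentration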;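 for TbrCatL Inhibition 0’: at 5 µM compound concentration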;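 for TbrCatL Inhibition 10’: at 5 µM compound concentration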
T1 construct: Conor Caffrey (University of California San Diego)
T1 sequence (Q95PM0 entry or part of it): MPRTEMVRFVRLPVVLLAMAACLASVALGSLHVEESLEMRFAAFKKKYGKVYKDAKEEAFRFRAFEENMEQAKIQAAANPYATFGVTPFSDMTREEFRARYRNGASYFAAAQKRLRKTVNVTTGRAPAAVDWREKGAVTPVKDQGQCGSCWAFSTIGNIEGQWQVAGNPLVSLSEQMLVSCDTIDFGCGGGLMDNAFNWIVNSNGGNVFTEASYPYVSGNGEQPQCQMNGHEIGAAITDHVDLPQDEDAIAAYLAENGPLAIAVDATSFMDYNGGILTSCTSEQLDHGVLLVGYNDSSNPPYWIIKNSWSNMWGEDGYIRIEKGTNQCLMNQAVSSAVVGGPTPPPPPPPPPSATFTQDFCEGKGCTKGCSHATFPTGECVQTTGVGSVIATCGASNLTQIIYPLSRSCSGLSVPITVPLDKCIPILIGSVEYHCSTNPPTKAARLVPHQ
In short: (§1)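 Recombinant enzymes assayed by Z-Phe-Arg-AMC cleavage at 25 °C, fluorescence 340/440 nm over 5–7 min, with 10 min or no enzyme–compound preincubation.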

cruzain = cruzain (Trypanosoma cruzi, UniProt P25779); experiment: biochemical;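 for Cruzain 0’ Inhibition: at 5 µM compound concentration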;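 for Cruzain 10’ Inhibition: at 5 µM compound concentration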;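 for Cruzain Inhibition 0’: at 5 µM compound concentration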;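 for Cruzain Inhibition 10’: at 5 µM compound concentration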
cruzain, sequence (P25779 123-337 limits assumed): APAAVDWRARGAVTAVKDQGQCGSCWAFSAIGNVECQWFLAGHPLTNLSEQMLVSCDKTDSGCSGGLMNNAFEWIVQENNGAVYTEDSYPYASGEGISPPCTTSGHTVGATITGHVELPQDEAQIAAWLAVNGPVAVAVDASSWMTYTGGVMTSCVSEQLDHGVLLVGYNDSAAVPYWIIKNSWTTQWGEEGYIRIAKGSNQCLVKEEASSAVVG
In short: as §1

[1] = 0’ (pre-incubation time), sheet "Screening results"
[2] = 10’ (pre-incubation time), sheet "Screening results"
[3] = 0’ (pre-incubation time), Pathogen Box screening results
[4] = 10’ (pre-incubation time), Pathogen Box screening results
[5] = 0’ (no pre-incubation), sheet Screening results
[6] = 5 µM, PB library solutions, 10 min pre-incubation, vs DMSO control
[7] = 10’ (pre-incubation), sheet Screening results

## CCCc1ccc(S(=O)(=O)Nc2ccc(CN3CCN(CC4CC4)CC3)cc2)cc1 [MMV688125]
TbrCatL; 0’ (pre-incubation time)
  TbrCatL 0’ Inhibition: -2.3%
TbrCatL; 10’ (pre-incubation time)
  TbrCatL 10’ Inhibition: -4.7%
cruzain; [1]
  Cruzain 0’ Inhibition: 4.4%
cruzain; [2]
  Cruzain 10’ Inhibition: 9%

## FC(F)(F)c1cc(NCCc2ccccc2)nc(-c2ccccn2)n1 [MMV659010]
TbrCatL; 0’ (pre-incubation time)
  TbrCatL 0’ Inhibition: 8%
TbrCatL; 10’ (pre-incubation time)
  TbrCatL 10’ Inhibition: 9%
cruzain; [1]
  Cruzain 0’ Inhibition: -2.5%
cruzain; [2]
  Cruzain 10’ Inhibition: 6%

## NCC(c1cccs1)S(=O)(=O)c1ccccc1 (stereo not shown) [MMV688557]
TbrCatL; [3]
  TbrCatL Inhibition 0’: -0.6%
TbrCatL; [4]
  TbrCatL Inhibition 10’: 1.2%
cruzain; [3]
  Cruzain Inhibition 0’: 2.3%
cruzain; [4]
  Cruzain Inhibition 10’: 0.1%

## Cc1nc(-c2ccccn2)nc(N2CCC(Cc3ccccc3)C2)c1Cl (stereo not shown) [MMV659004]
TbrCatL; 0’ (pre-incubation time)
  TbrCatL 0’ Inhibition: -4.5%
TbrCatL; 10’ (pre-incubation time)
  TbrCatL 10’ Inhibition: -2.3%
cruzain; [1]
  Cruzain 0’ Inhibition: -2%
cruzain; [2]
  Cruzain 10’ Inhibition: 12%

## O=C(NCCN1CCCC1)c1cc(NCCCCN2CCC(F)(F)CC2)nc2ccc(Cl)cc12 [MMV667494]
TbrCatL; read-out: Inhibition at 5 µM (Mean ± SEM %) TbrCatL 0′
  inhibition at 5 µM: 31 ± 5%
TbrCatL; read-out: Inhibition at 5 µM (Mean ± SEM %) TbrCatL 10′ inc
  inhibition at 5 µM: 73 ± 1%
TbrCatL; read-out: Inhibition at 100 µM (Mean ± SEM %) TbrCatL 0′
  inhibition at 100 µM: 0%
TbrCatL; read-out: Inhibition at 100 µM (Mean ± SEM %) TbrCatL 10′ inc
  inhibition at 100 µM: 11 ± 8%
TbrCatL; read-out: TbrCatL 0’ Inhibition
  inhibition at 5 µM: 32%
TbrCatL; read-out: TbrCatL 10’ Inhibition
  inhibition at 5 µM: 73%
cruzain; read-out: Cruzain 0’ Inhibition, 0’ (pre-incubation time), sheet "Screening results"
  inhibition at 5 µM: 39%
cruzain; read-out: Cruzain 10’ Inhibition, 10’ (pre-incubation time), sheet "Screening results"
  inhibition at 5 µM: 53%
cruzain; read-out: Inhibition at 5 µM (Mean ± SEM %) Cruzain 0′, 5 µM, no pre-incubation, initial screening
  inhibition at 5 µM: 40 ± 1%
cruzain; read-out: Inhibition at 5 µM (Mean ± SEM %) Cruzain 10′ inc, 5 µM, 10′ pre-incubation, initial screening
  inhibition at 5 µM: 53 ± 1%
cruzain; read-out: Inhibition at 100 µM (Mean ± SEM %) Cruzain 0′, 100 µM, no pre-incubation, solid samples
  inhibition at 100 µM: 0%
cruzain; read-out: Inhibition at 100 µM (Mean ± SEM %) Cruzain 10′ inc, 100 µM, 10′ pre-incubation, solid samples
  inhibition at 100 µM: 70 ± 3%
cruzain; read-out: Inhibition of cruzain or TbrCatL (either enzyme) in the initial screening, 5 µM, either cruzain or TbrCatL, with or without pre-incubation
  inhibition at 5 µM: ≥ 60%

## Nc1ncnc2c1ncn2[C@@H]1O[C@H](COS(=O)(=O)NC(=O)c2ccccc2O)[C@@H](O)[C@H]1O [MMV687700]
TbrCatL; 0’ (pre-incubation time)
  TbrCatL 0’ Inhibition: 3%
TbrCatL; 10’ (pre-incubation time)
  TbrCatL 10’ Inhibition: 17%
cruzain; [1]
  Cruzain 0’ Inhibition: 3%
cruzain; [2]
  Cruzain 10’ Inhibition: 10%

## COc1ccc(Cn2cnc3c(-c4ccco4)nc(Cl)nc32)cc1 [MMV687170]
TbrCatL; 0’ (pre-incubation time)
  TbrCatL 0’ Inhibition: 15%
TbrCatL; 10’ (pre-incubation time)
  TbrCatL 10’ Inhibition: 3.4%
cruzain; [1]
  Cruzain 0’ Inhibition: 6%
cruzain; [2]
  Cruzain 10’ Inhibition: 7%

## Nc1nc(N)c2c3c(sc2n1)CN(Cc1ccccc1)CC3 [MMV688345]
TbrCatL; 0’ (pre-incubation time)
  TbrCatL 0’ Inhibition: -1%
TbrCatL; 10’ (pre-incubation time)
  TbrCatL 10’ Inhibition: 23%
cruzain; [1]
  Cruzain 0’ Inhibition: 3.6%
cruzain; [2]
  Cruzain 10’ Inhibition: 16%

## O=C(Nc1nc(-c2ccccn2)cs1)c1cncn1-c1ccccc1 [MMV676512]
TbrCatL; [5]
  TbrCatL Inhibition 0’: -27%
TbrCatL; [6]
  Increase in the initial velocity of the reaction (%) 5 µM using PB samples TbrCatL: 109 ± 71%
TbrCatL; [7]
  TbrCatL Inhibition 10’: -109%
TbrCatL; TbrCatL 10′ inc, screening at 5 µM
  Increase in initial velocity of substrate cleavage in comparison to the DMSO control: 2 fold
cruzain; [5]
  Cruzain Inhibition 0’: -27%
cruzain; [6]
  Increase in the initial velocity of the reaction (%) 5 µM using PB samples Cruzain: 84 ± 54%
cruzain; 5 µM, solid samples, 10 min pre-incubation, vs DMSO control
  Increase in the initial velocity of the reaction (%) 5 µM using solid samples Cruzain: 14 ± 9%
cruzain; 100 µM, solid samples, 10 min pre-incubation, vs DMSO control
  Increase in the initial velocity of the reaction (%) 100 µM using solid samples Cruzain: 24 ± 5%
cruzain; [7]
  Cruzain Inhibition 10’: -84%
cruzain; solid samples, varying compound concentrations
  Increase in the enzyme velocity in confirmatory assays: no increase in the enzyme velocity

## Cc1cc(C)nc(-n2nc(C)cc2Nc2ccccc2)n1 [MMV062221]
TbrCatL; 0’ (pre-incubation time)
  TbrCatL 0’ Inhibition: -32%
TbrCatL; 10’ (pre-incubation time)
  TbrCatL 10’ Inhibition: -72%
cruzain; [1]
  Cruzain 0’ Inhibition: -21%
cruzain; [2]
  Cruzain 10’ Inhibition: -3%

## Brc1cncc(-c2cc(NCCCn3ccnc3)nc(-c3ccccc3)n2)c1 [MMV661713]
TbrCatL; [5]
  TbrCatL Inhibition 0’: 20%
TbrCatL; [7]
  TbrCatL Inhibition 10’: 10%
cruzain; [5]
  Cruzain Inhibition 0’: 20%
cruzain; [7]
  Cruzain Inhibition 10’: 13%

## Cc1cc(=O)[nH]c(-n2nc(C)cc2C)n1 [MMV393995]
TbrCatL; [3]
  TbrCatL Inhibition 0’: -13%
TbrCatL; [4]
  TbrCatL Inhibition 10’: -7%
cruzain; [3]
  Cruzain Inhibition 0’: -12%
cruzain; [4]
  Cruzain Inhibition 10’: -0.3%

## Nc1c2c(nc3sc4c(c13)CCCC4)CCCC2 [MMV676588]
TbrCatL; [5]
  TbrCatL Inhibition 0’: 14%
TbrCatL; [7]
  TbrCatL Inhibition 10’: 2%
cruzain; [5]
  Cruzain Inhibition 0’: 11%
cruzain; [7]
  Cruzain Inhibition 10’: 13%

## Nc1ncnc2c1c(-c1cnc3ccccc3c1)nn2CC1CCNCC1 [MMV688411]
TbrCatL; 0’ (pre-incubation time)
  TbrCatL 0’ Inhibition: 1.7%
TbrCatL; 10’ (pre-incubation time)
  TbrCatL 10’ Inhibition: 3.7%
cruzain; [1]
  Cruzain 0’ Inhibition: -0.3%
cruzain; [2]
  Cruzain 10’ Inhibition: 5.5%

## Cc1[nH]c2cc(F)cc(F)c2c(=O)c1-c1ccc(Oc2ccc(OC(F)(F)F)cc2)cc1 [MMV671636]
TbrCatL; 0’ (pre-incubation time)
  TbrCatL 0’ Inhibition: 10%
TbrCatL; 10’ (pre-incubation time)
  TbrCatL 10’ Inhibition: 6.6%
cruzain; [1]
  Cruzain 0’ Inhibition: 8%
cruzain; [2]
  Cruzain 10’ Inhibition: 17%

## CCN(CC)S(=O)(=O)c1ccc(C(=O)Nc2cc(C)nn2-c2nc(C)c(C)c(=O)[nH]2)cc1 [MMV595321]
TbrCatL; [5]
  TbrCatL Inhibition 0’: -23%
TbrCatL; [7]
  TbrCatL Inhibition 10’: -29%
cruzain; [5]
  Cruzain Inhibition 0’: -13%
cruzain; [7]
  Cruzain Inhibition 10’: -3.8%

## CC(C)(C)c1cc(C(=O)N2CCN(c3nccnc3C#N)CC2)n(Cc2ccccc2)n1 [MMV023949]
TbrCatL; 0’ (pre-incubation time)
  TbrCatL 0’ Inhibition: 12%
TbrCatL; 10’ (pre-incubation time)
  TbrCatL 10’ Inhibition: -3%
cruzain; [1]
  Cruzain 0’ Inhibition: -0.2%
cruzain; [2]
  Cruzain 10’ Inhibition: 6%

## COc1cncc(-c2cncc(N3CCN(c4ccncc4)CC3)n2)c1 [MMV085071]
TbrCatL; 0’ (pre-incubation time)
  TbrCatL 0’ Inhibition: -0.1%
TbrCatL; 10’ (pre-incubation time)
  TbrCatL 10’ Inhibition: -10%
cruzain; [1]
  Cruzain 0’ Inhibition: 3.8%
cruzain; [2]
  Cruzain 10’ Inhibition: -19%

## O=C(NCc1cc(Cl)cc(Cl)c1)c1c(C(F)(F)F)nc2ccccn12 [MMV687699]
TbrCatL; 0’ (pre-incubation time)
  TbrCatL 0’ Inhibition: -1.6%
TbrCatL; 10’ (pre-incubation time)
  TbrCatL 10’ Inhibition: -6%
cruzain; [1]
  Cruzain 0’ Inhibition: 3.3%
cruzain; [2]
  Cruzain 10’ Inhibition: 7%

## O=C(Nc1c(O)cccc1-c1nc2c(C(=O)O)cccc2o1)c1cc(-c2ccccc2)on1 [MMV676008]
TbrCatL; 0’ (pre-incubation time)
  TbrCatL 0’ Inhibition: 2.6%
TbrCatL; 10’ (pre-incubation time)
  TbrCatL 10’ Inhibition: -3.7%
cruzain; [1]
  Cruzain 0’ Inhibition: -3.3%
cruzain; [2]
  Cruzain 10’ Inhibition: 8%

## Cc1ccc(S(=O)(=O)Nc2ccc(CN3CCN(C(=O)c4cccc(C#N)c4)CC3)cc2)cc1 [MMV689028]
TbrCatL; [5]
  TbrCatL Inhibition 0’: -0.6%
TbrCatL; [7]
  TbrCatL Inhibition 10’: -0.3%
cruzain; [5]
  Cruzain Inhibition 0’: -0.6%
cruzain; [7]
  Cruzain Inhibition 10’: 8%

## Cc1cc(C2=NOC(c3cc(Cl)c(F)c(Cl)c3)(C(F)(F)F)C2)ccc1C(=O)NCc1ccc2c(c1)C(C)(C)OB2O (stereo not shown) [MMV687776]
TbrCatL; [5]
  TbrCatL Inhibition 0’: -0.1%
TbrCatL; [7]
  TbrCatL Inhibition 10’: -4.5%
cruzain; [5]
  Cruzain Inhibition 0’: 25%
cruzain; [7]
  Cruzain Inhibition 10’: 17%

## NS(=O)(=O)c1cccc(-c2ccc3ncc(N4CCOCC4)nc3c2)c1 [MMV023860]
TbrCatL; 0’ (pre-incubation time)
  TbrCatL 0’ Inhibition: -1.3%
TbrCatL; 10’ (pre-incubation time)
  TbrCatL 10’ Inhibition: 14%
cruzain; [1]
  Cruzain 0’ Inhibition: -5.3%
cruzain; [2]
  Cruzain 10’ Inhibition: 28%

## CCc1c(C)nc(-n2nc(C)cc2NC(=O)c2ccccc2SC)[nH]c1=O [MMV676477]
TbrCatL; [5]
  TbrCatL Inhibition 0’: -4%
TbrCatL; [7]
  TbrCatL Inhibition 10’: -17%
cruzain; [5]
  Cruzain Inhibition 0’: -0.2%
cruzain; [7]
  Cruzain Inhibition 10’: -11%

## CC1(O)CC(c2nc(-c3ccc4ccc(-c5ccccc5)nc4c3)c3c(N)nccn23)C1 (stereo not shown) [MMV676605]
TbrCatL; [5]
  TbrCatL Inhibition 0’: 7%
TbrCatL; [7]
  TbrCatL Inhibition 10’: -13%
cruzain; [5]
  Cruzain Inhibition 0’: 7.4%
cruzain; [7]
  Cruzain Inhibition 10’: -0.9%

## CCc1nn(C)c(C(=O)NCc2ccc(Oc3ccc(C)cc3)cc2)c1Cl [MMV688934]
TbrCatL; [5]
  TbrCatL Inhibition 0’: 18%
TbrCatL; [7]
  TbrCatL Inhibition 10’: 14%
cruzain; [5]
  Cruzain Inhibition 0’: 15%
cruzain; [7]
  Cruzain Inhibition 10’: 7.4%

## COc1ccc(-c2nnc3ccc(-c4cccc(C(C)C)c4)cn23)cc1OC [MMV688313]
TbrCatL; 0’ (pre-incubation time)
  TbrCatL 0’ Inhibition: -19%
TbrCatL; 10’ (pre-incubation time)
  TbrCatL 10’ Inhibition: -27%
cruzain; [1]
  Cruzain 0’ Inhibition: -16%
cruzain; [2]
  Cruzain 10’ Inhibition: -10%

## Cc1ccc2nc(Cl)c(CNCc3cccs3)cc2c1 [MMV676439]
TbrCatL; [5]
  TbrCatL Inhibition 0’: 5.4%
TbrCatL; [7]
  TbrCatL Inhibition 10’: 5%
cruzain; [5]
  Cruzain Inhibition 0’: -0.1%
cruzain; [7]
  Cruzain Inhibition 10’: 6.5%
